The text below walks through data of PMC12005739, “Disruption of the eEF1A1/ARID3A/PKC‐δ Complex by Neferine Inhibits Macrophage Glycolytic Reprogramming in Atherosclerosis” (Advanced Science, 2025).

The target of assay [1] is T1, eEF1A1 (RAW264.7 macrophages) (Mus musculus, UniProt P10126).
T1 construct: endogenous protein in RAW264.7 cells or lysate, about 50 kDa band, identified by LC-MS/MS and Western blot
T1 sequence (P10126 2-462): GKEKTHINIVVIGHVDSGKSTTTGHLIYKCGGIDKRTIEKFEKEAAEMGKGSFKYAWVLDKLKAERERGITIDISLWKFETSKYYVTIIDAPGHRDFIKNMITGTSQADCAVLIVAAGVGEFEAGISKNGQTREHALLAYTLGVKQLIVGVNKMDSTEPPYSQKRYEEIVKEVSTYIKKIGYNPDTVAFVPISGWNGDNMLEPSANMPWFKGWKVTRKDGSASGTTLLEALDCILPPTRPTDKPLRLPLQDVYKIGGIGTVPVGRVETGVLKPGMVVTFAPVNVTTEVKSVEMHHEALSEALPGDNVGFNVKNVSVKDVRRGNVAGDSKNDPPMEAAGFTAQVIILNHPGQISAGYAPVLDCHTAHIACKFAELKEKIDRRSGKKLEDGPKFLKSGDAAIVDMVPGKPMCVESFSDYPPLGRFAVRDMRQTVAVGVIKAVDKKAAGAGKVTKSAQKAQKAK
Description: CETSA and DARTS with Western blot; competition of probe pull-down. As to conditions: RAW264.7 lysate or cells; Nef 200 µM (CETSA methods) or 10 µM (figure legend); DARTS 2.5-10 µM with pronase. Format: biochemical. In general terms: In western blotting, separated proteins are transferred to a membrane and probed.

For assay [2], the target named is T2, eEF1A1 (recombinant human eEF1A1) (Homo sapiens, UniProt P68104).
T2 sequence (P68104 1-462): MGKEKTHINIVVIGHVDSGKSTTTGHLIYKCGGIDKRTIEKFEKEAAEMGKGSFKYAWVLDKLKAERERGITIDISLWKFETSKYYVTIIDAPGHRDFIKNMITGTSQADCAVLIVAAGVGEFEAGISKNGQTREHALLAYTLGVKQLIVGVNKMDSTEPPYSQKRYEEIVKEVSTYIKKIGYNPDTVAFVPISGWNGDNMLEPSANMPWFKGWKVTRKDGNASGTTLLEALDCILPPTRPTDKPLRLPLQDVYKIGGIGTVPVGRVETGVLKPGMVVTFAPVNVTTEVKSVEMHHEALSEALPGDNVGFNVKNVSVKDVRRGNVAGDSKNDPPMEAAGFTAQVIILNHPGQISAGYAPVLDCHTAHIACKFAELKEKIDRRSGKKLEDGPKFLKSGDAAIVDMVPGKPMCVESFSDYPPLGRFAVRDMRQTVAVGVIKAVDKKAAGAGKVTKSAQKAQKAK
Kind of assay: isothermal titration calorimetry (MicroCal PEAQ-ITC). Format: binding. The text has this: isothermal titration calorimetry (MicroCal PEAQ-ITC) on eEF1A1 (recombinant human eEF1A1) | ITC assay confirmed the affinity of Nef to eEF1A1 with the affinity constant of […]
(In general: ITC needs no label: the signal is the heat of the interaction.)

On to `COc1ccc(C[C@@H]2c3cc(Oc4cc(C[C@@H]5c6cc(OC)c(OC)cc6CCN5C)ccc4O)c(OC)cc3CCN2C)cc1` [neferine], for which the “CETSA and DARTS with Western blot; competition of probe pull-down” value in assay [1] is on record as “Nef administration protected the eEF1A1 protein from temperature‐dependent degradation in cell lysis”. Besides, the Kd (commonly the free concentration of one partner at which half of the binding sites on the other are occupied at equilibrium, for simple one-to-one binding) in assay [2] amounted to 4.83 µM.
